ChEMBL document CHEMBL4265872, “Around the macrolide - Impact of 3D structure of macrocycles on lipophilicity and cellular accumulation” (Eur J Med Chem, 2017)

Experiments:
[1] = Chromatographic hydrophobicity, logD of the compound at pH 7.4 by fast-gradient RP-HPLC method; format: physicochemical; conditions: buffer
[2] = Drug accumulation in human NCI-H292 cells at 3 to 10 uM incubated for 3 hrs by LC-MS analysis relative to azithromycin; format: ADME, cell-based; conditions: nci-h292, 3 h

Row | Structure (SMILES) | chromatographic logD [1] | Drug uptake [2] [%]
1 | CCC(=O)NCCCO[C@@H]1[C@@H](C)N(C)C[C@H](C)C[C@@](C)(O)[C@H](O[C@@H]2O[C@H](C)C[C@H](N(C)C)[C@H]2O)[C@@H](C)[C@H](O[C@H]2C[C@@](C)(OC)[C@@H](O)[C@H](C)O2)[C@@H](C)C(=O)O[C@H](CC)[C@@]1(C)O | 2.74 | 41
2 | CC[C@H]1OC(=O)[C@H](C)[C@@H](O[C@H]2C[C@@](C)(OC)[C@@H](O)[C@H](C)O2)[C@H](C)[C@@H](O[C@@H]2O[C@H](C)C[C@H](N(C)C)[C@H]2OCCCNC(=O)COC)[C@](C)(O)C[C@@H](C)CN(C)[C@H](C)[C@@H](O)[C@]1(C)O | 2.54 | 22
3 | CC[C@H]1OC(=O)[C@H](C)[C@@H](O[C@H]2C[C@@](C)(OC)[C@@H](O)[C@H](C)O2)[C@H](C)[C@@H](O[C@@H]2O[C@H](C)C[C@H](N(C)C)[C@H]2OCCCNC(=O)c2c(C)nn(C)c2Cl)[C@](C)(O)C[C@@H](C)CN(C)[C@H](C)[C@@H](O)[C@]1(C)O | 3.08 | 95
4 | CC[C@H]1OC(=O)[C@H](C)[C@@H](O[C@H]2C[C@@](C)(OC)[C@@H](O)[C@H](C)O2)[C@H](C)[C@@H](O[C@@H]2O[C@H](C)C[C@H](N(C)C)[C@H]2O)[C@](C)(O)C[C@@H](C)CN(CCCNC(=O)c2c(C)nn(C)c2Cl)[C@H](C)[C@@H](O)[C@]1(C)O | 2.2 | 5
5 | CC[C@H]1OC(=O)[C@H](C)[C@@H](O[C@H]2C[C@@](C)(OC)[C@@H](O)[C@H](C)O2)[C@H](C)[C@@H](O[C@@H]2O[C@H](C)C[C@H](N(C)CCCNC(C)=O)[C@H]2O)[C@](C)(O)C[C@@H](C)CN(C)[C@H](C)[C@@H](O)[C@]1(C)O | 2.06 | 5
6 | CCCCCCCC(=O)NCCCO[C@H]1[C@H](C)O[C@@H](O[C@H]2[C@H](C)[C@@H](O[C@@H]3O[C@H](C)C[C@H](N(C)C)[C@H]3O)[C@](C)(OC)C[C@@H](C)C(=O)[C@H](C)[C@@H](O)[C@](C)(O)[C@@H](CC)OC(=O)[C@@H]2C)C[C@@]1(C)OC | 6.02 | 281
7 | CCCCC(=O)NCCCN(C)[C@H]1C[C@@H](C)O[C@@H](O[C@@H]2[C@@H](C)[C@H](O[C@H]3C[C@@](C)(OC)[C@@H](O)[C@H](C)O3)[C@@H](C)C(=O)O[C@H](CC)[C@@](C)(O)[C@H](O)[C@@H](C)N(C)C[C@H](C)C[C@@]2(C)O)[C@@H]1O | 3.08 | 75
8 | CCC(=O)NCCCO[C@H]1[C@H](C)O[C@@H](O[C@H]2[C@H](C)[C@@H](O[C@@H]3O[C@H](C)C[C@H](N(C)C)[C@H]3O)[C@](C)(O)C[C@@H](C)CN(C)[C@H](C)[C@@H](O)[C@](C)(O)[C@@H](CC)OC(=O)[C@@H]2C)C[C@@]1(C)OC | 2.54 | 15
9 | CCC(=O)NCCCO[C@H]1[C@H](O[C@@H]2[C@@H](C)[C@H](O[C@H]3C[C@@](C)(OC)[C@@H](O)[C@H](C)O3)[C@@H](C)C(=O)O[C@H](CC)[C@@](C)(O)[C@H](O)[C@@H](C)N(C)C[C@H](C)C[C@@]2(C)O)O[C@H](C)C[C@@H]1N(C)C | 2.7 | 41
10 | CC[C@H]1OC(=O)[C@H](C)[C@@H](O)[C@H](C)[C@@H](O)[C@](C)(O)C[C@@H](C)CN(C)[C@H](C)[C@@H](O)[C@]1(C)O [AZITHROMYCIN AGLYCONE] | 1.29 | 13
11 | CC[C@H]1OC(=O)[C@H](C)[C@@H](O[C@H]2C[C@@](C)(OC)[C@@H](O)[C@H](C)O2)[C@H](C)[C@@H](O[C@@H]2O[C@H](C)C[C@H](N(C)C)[C@H]2O)[C@](C)(O)C[C@@H](C)CN(C)[C@H](C)[C@@H](O)[C@]1(C)O [AZITHROMYCIN] | 2.11 | 100
12 | CC[C@H]1OC(=O)[C@H](C)[C@@H](O[C@H]2C[C@@](C)(OC)[C@@H](O)[C@H](C)O2)[C@H](C)[C@@H](O[C@@H]2O[C@H](C)C[C@H](N(C)C)[C@H]2O)[C@](C)(OC)C[C@@H](C)C(=O)[C@H](C)[C@@H](O)[C@]1(C)O [CLARITHROMYCIN] | 3.5 | 35

Further lines, results first:

Row | chromatographic logD [1] | Drug uptake [2] [%] | Structure (SMILES)
13 | 3.74 | 457 | CCCCCCCC(=O)NCCCN(C)[C@H]1C[C@@H](C)O[C@@H](O[C@@H]2[C@@H](C)[C@H](O[C@H]3C[C@@](C)(OC)[C@@H](O)[C@H](C)O3)[C@@H](C)C(=O)O[C@H](CC)[C@@](C)(O)[C@H](O)[C@@H](C)N(C)C[C@H](C)C[C@@]2(C)O)[C@@H]1O
14 | 3.74 | 207 | CCCCCCCC(=O)NCCCN1C[C@H](C)C[C@@](C)(O)[C@H](O[C@@H]2O[C@H](C)C[C@H](N(C)C)[C@H]2O)[C@@H](C)[C@H](O[C@H]2C[C@@](C)(OC)[C@@H](O)[C@H](C)O2)[C@@H](C)C(=O)O[C@H](CC)[C@@](C)(O)[C@H](O)[C@H]1C
15 | 1.6 | 22 | CCC(=O)NCCCO[C@H]1[C@H](C)[C@@H](O[C@@H]2O[C@H](C)C[C@H](N(C)C)[C@H]2O)[C@](C)(O)C[C@@H](C)CN(C)[C@H](C)[C@@H](O)[C@](C)(O)[C@@H](CC)OC(=O)[C@@H]1C
16 | 5.18 | 756 | CCCCCCCC(=O)NCCCO[C@@H]1[C@@H](C)N(C)C[C@H](C)C[C@@](C)(O)[C@H](O[C@@H]2O[C@H](C)C[C@H](N(C)C)[C@H]2O)[C@@H](C)[C@H](O[C@H]2C[C@@](C)(OC)[C@@H](O)[C@H](C)O2)[C@@H](C)C(=O)O[C@H](CC)[C@@]1(C)O
17 | 3.08 | 80 | CCCCCCCC(=O)NCCCN1C[C@H](C)C[C@@](C)(O)[C@H](O[C@@H]2O[C@H](C)C[C@H](N(C)C)[C@H]2O)[C@@H](C)[C@H](O)[C@@H](C)C(=O)O[C@H](CC)[C@@](C)(O)[C@H](O)[C@H]1C
18 | 4.84 | 226 | CCCCCCCC(=O)NCCCN(C)[C@H]1C[C@@H](C)O[C@@H](O[C@@H]2[C@@H](C)[C@H](O)[C@@H](C)C(=O)O[C@H](CC)[C@@](C)(O)[C@H](O)[C@@H](C)N(C)C[C@H](C)C[C@@]2(C)O)[C@@H]1O
19 | 1.35 | 56 | CC[C@H]1OC(=O)[C@H](C)[C@@H](O)[C@H](C)[C@@H](O[C@@H]2O[C@H](C)C[C@H](N(C)C)[C@H]2O)[C@](C)(O)C[C@@H](C)CN(C)[C@H](C)[C@@H](O)[C@]1(C)O [DESCLADINOSYL AZITHROMYCIN]
